Results on one molecule are retold here after ChEMBL document CHEMBL5518202, “Discovery of a Potent Nicotinamide Phosphoribosyltransferase Activator for Improving Aging-associated Dysfunctions” (J Med Chem, 2024).

Molecules are shown by their SMILES.

For orientation: Kd means the equilibrium constant for the complex coming apart.

The target in the assay is Nicotinamide phosphoribosyltransferase (Homo sapiens, UniProt P43490). Nature of the assay: Binding affinity to NAMPT (unknown origin) assessed as dissociation constant incubated for 30 mins by microscale thermophoresis analysis.
Nicotinamide phosphoribosyltransferase, sequence (P43490 whole entry): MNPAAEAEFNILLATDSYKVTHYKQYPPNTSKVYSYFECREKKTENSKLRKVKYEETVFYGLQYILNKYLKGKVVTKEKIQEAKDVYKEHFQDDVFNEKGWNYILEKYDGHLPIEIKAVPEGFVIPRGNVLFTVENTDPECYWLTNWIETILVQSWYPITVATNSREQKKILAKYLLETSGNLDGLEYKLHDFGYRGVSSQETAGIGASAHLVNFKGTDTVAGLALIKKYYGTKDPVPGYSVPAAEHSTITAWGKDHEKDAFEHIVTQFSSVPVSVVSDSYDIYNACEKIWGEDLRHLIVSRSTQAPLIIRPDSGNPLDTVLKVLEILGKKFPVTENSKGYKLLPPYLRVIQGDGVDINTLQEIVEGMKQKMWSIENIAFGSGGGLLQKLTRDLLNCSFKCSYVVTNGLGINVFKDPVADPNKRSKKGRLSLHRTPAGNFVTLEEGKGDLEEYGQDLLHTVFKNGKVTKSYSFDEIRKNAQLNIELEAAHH

As to `O=C(NCc1ccncc1)Nc1ccc(S(=O)(=O)N2CC3CCC(C2)O3)cc1`, the Kd came to 6.82 µM.
